# From patent US20230340011A1 (Asteroid Therapeutics, priority 2022, published 2023)
# How the values were obtained:
# SREBP-2 = SREBP-2 (Homo sapiens (Human), UniProt Q12772); assay: In vitro assay SREBP-2: PathHunter U2OS SREBP-2 Nuclear Translocation Cell Line, U18666A-stimulated; format: cell-based; conditions: PathHunter U2OS SREBP-2 nuclear translocation cells, U18666A 10 μM, overnight (16 hours)
# LXRβ = LXRβ (Homo sapiens (Human), UniProt P55055); assay: In vitro assay LXRβ: PathHunter NHR CHO cells, LXRβ / Steroid Receptor Co-activator Peptide enzyme fragment complementation; format: cell-based; conditions: PathHunter NHR CHO cells, full-length human LXRβ and SRCP, chemiluminescent signal; read-out: LXRβ PPI
# Chain of LXRβ (P55055 whole entry, the tested form may be a part): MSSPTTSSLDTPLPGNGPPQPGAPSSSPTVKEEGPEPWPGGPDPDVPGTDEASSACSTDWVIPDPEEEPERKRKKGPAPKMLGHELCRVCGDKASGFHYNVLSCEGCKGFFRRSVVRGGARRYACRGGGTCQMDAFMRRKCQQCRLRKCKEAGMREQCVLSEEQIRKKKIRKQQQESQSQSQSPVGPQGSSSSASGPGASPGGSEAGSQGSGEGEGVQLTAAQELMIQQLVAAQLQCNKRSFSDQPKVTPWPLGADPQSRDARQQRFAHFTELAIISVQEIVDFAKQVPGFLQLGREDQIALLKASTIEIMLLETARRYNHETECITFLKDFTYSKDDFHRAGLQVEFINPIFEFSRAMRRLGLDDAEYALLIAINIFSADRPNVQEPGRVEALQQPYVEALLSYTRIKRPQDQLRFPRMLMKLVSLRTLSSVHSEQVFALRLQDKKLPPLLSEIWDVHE
# Procedure, shortened: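 Co-activator recruitment measured by chemiluminescence after signal generation. The CHO line carries full-length human LXRβ tagged with ProLink and an SRCP–enzyme acceptor fusion in the nucleus; cells sat overnight at 37° C before testing, in charcoal-dextran filtered serum medium with 1% final vehicle.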
SMILES,IC50 (SREBP-2) [µM],EC50 (LXRβ) [µM]
"C[C@H](CCC(=O)N(C)C)[C@H]1CC[C@H]2[C@@H]3C[C@@H](O)[C@H]4C[C@@H](O)CC[C@]4(C)[C@H]3CC[C@]12C [Example C1, (R)-4-((3S,5S,6R,8S,9S,10R,13R,14S,17R)-3,6-dihydroxy-10,13-dimethylhexadecahydro-1H-cyclopenta[a]phenanthren-17-yl)-N,N-dimethylpentanamide]",> 10,> 10
"C[C@H](CCC(=O)N1CCN(C(=O)C2CC2)[C@@H](C)C1)[C@H]1CC[C@H]2[C@@H]3CC=C4C[C@@H](O)CC[C@]4(C)[C@H]3CC[C@]12C [Example 650, (R)-1-((S)-4-(cyclopropanecarbonyl)-3-methylpiperazin-1-yl)-4-((3S,8S,9S,10R,13R,14S,17R)-3-hydroxy-10,13-dimethyl-2,3,4,7,8,9,10,11,12,13,14,15,16,17-tetradecahydro-1H-cyclopenta[a]phenanthren-17-yl)pentan-1-one]",< 0.25,> 10
"Cc1noc(N2CCN(C(=O)CC[C@@H](C)[C@H]3CC[C@H]4[C@@H]5CC=C6C[C@@H](O)CC[C@]6(C)[C@H]5CC[C@]34C)CC2)n1 [Example 495, (R)-4-((3S,8S,9S,10R,13R,14S,17R)-3-hydroxy-10,13-dimethyl-2,3,4,7,8,9,10,11,12,13,14,15,16,17-tetradecahydro-1H-cyclopenta[a]phenanthren-17-yl)-1-(4-(3-methyl-1,2,4-oxadiazol-5-yl)piperazin-1-yl)pentan-1-one]",< 0.25,> 10
"COc1cncnc1N1CCN(C(=O)CC[C@@H](C)[C@H]2CC[C@H]3[C@@H]4CC=C5C[C@@H](O)CC[C@]5(C)[C@H]4CC[C@]23C)[C@@H](C)C1 [Example 616, (R)-4-((3S,8S,9S,10R,13R,14S,17R)-3-hydroxy-10,13-dimethyl-2,3,4,7,8,9,10,11,12,13,14,15,16,17-tetradecahydro-1H-cyclopenta[a]phenanthren-17-yl)-1-((S)-4-(5-methoxypyrimidin-4-yl)-2-methylpiperazin-1-yl)pentan-1-one]",< 0.25,> 10
"C[C@H](CCC(=O)N1CCC[C@@H](O)C1)[C@H]1CC[C@H]2[C@@H]3CC=C4C[C@@H](O)CC[C@]4(C)[C@H]3CC[C@]12C [Example 104, (R)-4-((3S,8S,9S,10R,13R,14S,17R)-3-hydroxy-10,13-dimethyl-2,3,4,7,8,9,10,11,12,13,14,15,16,17-tetradecahydro-1H-cyclopenta[a]phenanthren-17-yl)-1-((R)-3-hydroxypiperidin-1-yl) pentan-1-one]",< 0.25,0.25 to 1
"CON(CCO)C(=O)CC[C@@H](C)[C@H]1CC[C@H]2[C@@H]3CC=C4C[C@@H](O)CC[C@]4(C)[C@H]3CC[C@]12C [Example 62, (R)-4-((3S,8S,9S,10R,13R,14S,17R)-3-hydroxy-10,13-dimethyl-2,3,4,7,8,9,10,11,12,13,14,15,16,17-tetradecahydro-1H-cyclopenta[a]phenanthren-17-yl)-N-(2-hydroxyethyl)-N-methoxypentanamide]",0.25 to 1,0.25 to 1
"C[C@H](CCC(=O)N1CCC(F)(F)CC1)[C@H]1CC[C@H]2[C@@H]3CC=C4C[C@@H](O)CC[C@]4(C)[C@H]3CC[C@]12C [Example 79, (R)-1-(4,4-difluoropiperidin-1-yl)-4-((3S,8S,9S,10R,13R,14S,17R)-3-hydroxy-10,13-dimethyl-2,3,4,7,8,9,10,11,12,13,14,15,16,17-tetradecahydro-1H-cyclopenta[a]phenanthren-17-yl) pentan-1-one]",< 0.25,1 to 10
"C[C@H](CCc1ncccc1C(F)(F)F)[C@H]1CC[C@H]2[C@@H]3CC=C4C[C@@H](O)CC[C@]4(C)[C@H]3CC[C@]12C [Example 185, (1R,3aS,3bS,7S,9aR,9bS,11aR)-9a,11a-dimethyl-1-[(2R)-4-[3-(trifluoromethyl)pyridin-2-yl]butan-2-yl]-1H,2H,3H,3aH,3bH,4H,6H,7H,8H,9H,9aH,9bH,10H,11H, 11 aH-cyclopenta[a]phenanthren-7-ol]",0.25 to 1,1 to 10
"CC(C)N1CCN(C(=O)CC[C@@H](C)[C@H]2CC[C@H]3[C@@H]4CC=C5C[C@@H](O)CC[C@]5(C)[C@H]4CC[C@]23C)CC1 [Example 316, (R)-4-((3S,8S,9S,10R,13R,14S,17R)-3-hydroxy-10,13-dimethyl-2,3,4,7,8,9,10,11,12,13,14,15,16,17-tetradecahydro-1H-cyclopenta[a]phenanthren-17-yl)-1-(4-isopropylpiperazin-1-yl) pentan-1-one]",< 0.25,> 10
"COC(=O)N1CCN(C(=O)CC[C@@H](C)[C@H]2CC[C@H]3[C@@H]4CC=C5C[C@@H](O)CC[C@]5(C)[C@H]4CC[C@]23C)CC1 [Example 360, methyl 4-((R)-4-((3S,8S,9S,10R,13R,14S,17R)-3-hydroxy-10,13-dimethyl-2,3,4,7,8,9,10,11,12,13,14,15,16,17-tetradecahydro-1H-cyclopenta[a]phenanthren-17-yl)pentanoyl)piperazine-1-carboxylate]",< 0.25,> 10
"C[C@H](CCC(=O)N1CCS(=O)(=O)[C@H](C)C1)[C@H]1CC[C@H]2[C@@H]3CC=C4C[C@@H](O)CC[C@]4(C)[C@H]3CC[C@]12C [Example 356, (2R)-4-[(4R)-4-[(1R,3aS,3bS,7S,9aR,9bS,11aR)-7-hydroxy-9a,11a-dimethyl-1H,2H,3H,3aH,3bH,4H,6H,7H,8H,9H,9aH,9bH,10H,11H,11aH-cyclopenta[a]phenanthren-1-yl]pentanoyl]-2-methyl-1 λ^6-thiomorpholine-1,1-dione]",< 0.25,> 10
"CON(CC(=O)O)C(=O)CC[C@@H](C)[C@H]1CC[C@H]2[C@@H]3CC=C4C[C@@H](O)CC[C@]4(C)[C@H]3CC[C@]12C [Example 63, N—((R)-4-((3S,8S,9S,10R,13R,14S,17R)-3-hydroxy-10,13-dimethyl-2,3,4,7,8,9,10,11,12,13,14,15,16,17-tetradecahydro-1H-cyclopenta[a]phenanthren-17-yl)pentanoyl)-N-methoxyglycine]",> 10,0.25 to 1
"C[C@H](COC(=O)N1CCN(c2ccncc2)CC1)[C@H]1CC[C@H]2[C@@H]3CC=C4C[C@@H](O)CC[C@]4(C)[C@H]3CC[C@]12C [Example 597, (2S)-2-[(1R,3aS,3bS,7S,9aR,9bS,11aS)-7-hydroxy-9a,11a-dimethyl-1H,2H,3H,3aH,3bH,4H,6H,7H,8H,9H,9aH,9bH,10H,11H,11aH-cyclopenta[a]phenanthren-1-yl]propyl 4-(pyridin-4-yl)piperazine-1-carboxylate]",< 0.25,> 10
"C[C@H](CCC(=O)N1CCC(NS(C)(=O)=O)CC1)[C@H]1CC[C@H]2[C@@H]3CC=C4C[C@@H](O)CC[C@]4(C)[C@H]3CC[C@]12C [Example 414, N-(1-((R)-4-((3S,8S,9S,10R,13R,14S,17R)-3-hydroxy-10,13-dimethyl-2,3,4,7,8,9,10,11,12,13,14,15,16,17-tetradecahydro-1H-cyclopenta[a]phenanthren-17-yl)pentanoyl)piperidin-4-yl)methanesulfonamide]",0.25 to 1,> 10
